According to US8222219B2, “Glucopyranoside compound” (Mitsubishi Tanabe Pharma Corporation, priority 2003, dated 2012):

Molecular target: T1, human SGLT2 (Homo sapiens, UniProt P31639)
T1 construct: expressed in transfected cells; host or cells: CHOK1 (CHO-K1) cells, kept under Geneticin selection
T1 sequence (P31639 1-672): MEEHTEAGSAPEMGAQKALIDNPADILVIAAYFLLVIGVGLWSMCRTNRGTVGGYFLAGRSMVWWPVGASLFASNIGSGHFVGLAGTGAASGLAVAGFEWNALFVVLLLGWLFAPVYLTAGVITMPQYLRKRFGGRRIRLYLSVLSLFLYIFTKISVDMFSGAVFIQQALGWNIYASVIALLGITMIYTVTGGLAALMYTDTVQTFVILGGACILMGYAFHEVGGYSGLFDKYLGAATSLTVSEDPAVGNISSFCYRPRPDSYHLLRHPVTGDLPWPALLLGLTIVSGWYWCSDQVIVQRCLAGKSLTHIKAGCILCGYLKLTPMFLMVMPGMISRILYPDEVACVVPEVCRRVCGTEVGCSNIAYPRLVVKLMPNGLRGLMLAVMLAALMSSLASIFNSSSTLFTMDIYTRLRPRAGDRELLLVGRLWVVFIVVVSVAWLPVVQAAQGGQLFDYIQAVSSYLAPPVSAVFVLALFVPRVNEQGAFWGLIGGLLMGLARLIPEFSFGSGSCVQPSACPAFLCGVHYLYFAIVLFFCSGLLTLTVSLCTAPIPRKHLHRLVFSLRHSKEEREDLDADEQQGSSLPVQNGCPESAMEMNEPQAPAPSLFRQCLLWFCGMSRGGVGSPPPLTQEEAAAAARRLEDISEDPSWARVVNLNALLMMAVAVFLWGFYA
Experiment: Assay for SGLT2 inhibition (14C-AMG uptake in CHOK1 cells expressing human SGLT2)
Assay type: cell-based
Details: not given
Protocol: 1. Assay for SGLT2 Inhibition
Compounds described in the above examples were used for the SGLT2 inhibition assay.
CHOK1 cells expressing human SGLT2 were seeded in 24-well plates at a density of 400,000 cells/well in F-12 nutrient mixture (Ham's F-12) containing 10% fetal bovine serum, 400 μg/ml Geneticin, 50 units/ml sodium penicillin G (Gibco-BRL) and 50 μg/ml streptomycin sulfate. […] Test compounds were dissolved in DMSO. The final concentration of DMSO was 0.5%. The transport reaction was initiated by addition of 50 μl [^14C]-methyl-α-D-glucopyranoside (^14C-AMG) solution (final concentration, 0.5 mM). After incubation for 2 hours at 37° C., the uptake was stopped by aspiration of the incubation mixture, the cells were washed three times with ice-cold PBS. Then, cells were solubilized with 0.3 N NaOH and aliquots were taken for determination of radioactivity by a liquid scintillation counter. Nonspecific AMG uptake was defined as that which occurred in the presence of 100 μM of phlorizin, a specific inhibitor of sodium-dependent glucose cotransporter. Specific uptake was normalized for the protein concentrations measured by the method of Bradford.

Compound `Cc1ccc([C@@H]2O[C@H](CO)[C@@H](O)[C@H](O)[C@H]2O)cc1Cc1ccc(-c2ccc(F)cc2)s1` [Example 84] has an IC50 of 2.2 nM.

Same assay, conditions: CHOK1 cells expressing human SGLT2; 14C-AMG uptake 0.5 mM, 2 hours at 37° C.; read-out: IC50

Point of comparison: `Cc1cccc(-c2ccc(Cc3cc([C@@H]4O[C@H](CO)[C@@H](O)[C@H](O)[C@H]4O)ccc3Cl)s2)c1` [Example 87], IC50 3.4 nM. Against it:
- OC[C@H]1O[C@@H](c2ccc(Cl)c(Cc3ccc(-c4ccccc4F)s3)c2)[C@H](O)[C@@H](O)[C@@H]1O [Example 69] — 2.3-fold higher, 7.9 nM
- OC[C@H]1O[C@@H](c2ccc(Cl)c(Cc3ccc(-c4ccc(F)cc4)s3)c2)[C@H](O)[C@@H](O)[C@@H]1O [Example 70] — 2.1-fold higher, 7 nM
- CCOc1ccc(-c2ccc(Cc3cc([C@@H]4O[C@H](CO)[C@@H](O)[C@H](O)[C@H]4O)ccc3Cl)s2)cc1 [Example 71] — 1.9-fold higher, 6.6 nM
- CCOc1cccc(-c2ccc(Cc3cc([C@@H]4O[C@H](CO)[C@@H](O)[C@H](O)[C@H]4O)ccc3Cl)s2)c1 [Example 72] — within 1.5-fold, 4.6 nM
- OC[C@H]1O[C@@H](c2ccc(Cl)c(Cc3ccc(-c4cccc(F)c4)s3)c2)[C@H](O)[C@@H](O)[C@@H]1O [Example 78] — 2-fold lower, 1.7 nM
- CCOc1cccc(-c2ccc(Cc3cc([C@@H]4O[C@H](CO)[C@@H](O)[C@H](O)[C@H]4O)ccc3F)s2)c1 [Example 79] — 2.6-fold higher, 9 nM
- OC[C@H]1O[C@@H](c2ccc(F)c(Cc3ccc(-c4cccc(F)c4)s3)c2)[C@H](O)[C@@H](O)[C@@H]1O [Example 80] — 2-fold higher, 6.8 nM
- Cc1ccc([C@@H]2O[C@H](CO)[C@@H](O)[C@H](O)[C@H]2O)cc1Cc1ccc(-c2cccc(F)c2)s1 [Example 83] — 2.6-fold lower, 1.3 nM
- Cc1cccc(-c2ccc(Cc3cc([C@@H]4O[C@H](CO)[C@@H](O)[C@H](O)[C@H]4O)ccc3C)s2)c1 [Example 86] — within 1.5-fold, 2.8 nM
- OC[C@H]1O[C@@H](c2ccc(Cl)c(Cc3ccc(-c4cccc(Cl)c4)s3)c2)[C@H](O)[C@@H](O)[C@@H]1O [Example 88] — within 1.5-fold, 2.6 nM
- Cc1ccc([C@@H]2O[C@H](CO)[C@@H](O)[C@H](O)[C@H]2O)cc1Cc1ccc(-c2cccc(Cl)c2)s1 [Example 89] — within 1.5-fold, 3 nM
- COc1cccc(-c2ccc(Cc3cc([C@@H]4O[C@H](CO)[C@@H](O)[C@H](O)[C@H]4O)ccc3C)s2)c1 [Example 90] — 1.7-fold lower, 2 nM
- Cc1ccc([C@@H]2O[C@H](CO)[C@@H](O)[C@H](O)[C@H]2O)cc1Cc1ccc(-c2cccc(N(C)C)c2)s1 [Example 122, 1-(β-D-glucopyranosyl)-3-(5-(3-dimethylaminophenyl)-2-thienylmethyl)-4-methylbenzene] — 2.4-fold higher, 8.2 nM
- Cc1ccc([C@@H]2O[C@H](CO)[C@@H](O)[C@H](O)[C@H]2O)cc1Cc1ccc(-c2cccc(C(F)F)c2)s1 [Example 130, 1-(β-D-glucopyranosyl)-3-(5-(3-difluoromethylphenyl)-2-thienylmethyl)-4-methylbenzene] — within 1.5-fold, 2.4 nM
- Cc1ccc([C@@H]2O[C@H](CO)[C@@H](O)[C@H](O)[C@H]2O)cc1Cc1ccc(-c2ccc3c(c2)OCO3)s1 [Example 145] — within 1.5-fold, 4 nM
- CCOc1cccc(-c2ccc(Cc3cc([C@@H]4O[C@H](CO)[C@@H](O)[C@H](O)[C@H]4O)ccc3Cl)s2)n1 [Example 173, 1-(β-D-glucopyranosyl)-4-chloro-3-(5-(6-ethoxy-2-pyridyl)-2-thienylmethyl)benzene] — 2.4-fold higher, 8 nM
- Cc1ccc([C@@H]2O[C@H](CO)[C@@H](O)[C@H](O)[C@H]2O)cc1Cc1ccc(-c2ccc(C(F)F)cc2)s1 [Example 176, 1-(β-D-glucopyranosyl)-3-(5-(4-difluoromethylphenyl)-2-thienylmethyl)-4-methylbenzene] — 2.3-fold higher, 7.7 nM
- OC[C@H]1O[C@@H](c2ccc(Cl)c(Cc3ccc(-c4ccc(C(F)F)cc4)s3)c2)[C@H](O)[C@@H](O)[C@@H]1O [Example 179, 1-(β-D-glucopyranosyl)-4-chloro-3-(5-(4-difluoromethylphenyl)-2-thienylmethyl)benzene] — 2.9-fold higher, 9.8 nM
- N#Cc1ccc(-c2ccc(Cc3cc([C@@H]4O[C@H](CO)[C@@H](O)[C@H](O)[C@H]4O)ccc3Cl)s2)cc1F [Example 183, 1-(β-D-glucopyranosyl)-4-chloro-3-(5-(4-cyano-3-fluorophenyl)-2-thienylmethyl)benzene] — 2.8-fold higher, 9.5 nM
- Cc1ccc([C@@H]2O[C@H](CO)[C@@H](O)[C@H](O)[C@H]2O)cc1Cc1ccc(-c2ccc(F)c(C#N)c2)s1 [Example 185, 1-(β-D-glucopyranosyl)-4-methyl-3-(5-(3-cyano-4-fluorophenyl)-2-thienylmethyl)benzene] — 1.6-fold higher, 5.6 nM
- Cc1ccc([C@@H]2O[C@H](CO)[C@@H](O)[C@H](O)[C@H]2O)cc1Cc1ccc(-c2ccc(C#N)nc2)s1 [Example 186, 1-(β-D-glucopyranosyl)-3-(5-(2-cyano-5-pyridyl)-2-thienylmethyl)-4-methylbenzene] — 1.6-fold higher, 5.4 nM
- N#Cc1ccc(-c2ccc(Cc3cc([C@@H]4O[C@H](CO)[C@@H](O)[C@H](O)[C@H]4O)ccc3Cl)s2)cn1 [Example 187, 1-(β-D-glucopyranosyl)-4-chloro-3-(5-(2-cyano-5-pyridyl)-2-thienylmethyl)benzene] — within 1.5-fold, 4.3 nM
- NC(=O)c1ccc(-c2ccc(Cc3cc([C@@H]4O[C@H](CO)[C@@H](O)[C@H](O)[C@H]4O)ccc3Cl)s2)cn1 [Example 188, 1-(β-D-glucopyranosyl)-3-(5-(2-carbamoyl-5-pyridyl)-2-thienylmethyl)-4-chlorobenzene] — 2.1-fold lower, 1.6 nM
- CCOC(=O)c1ccc(-c2ccc(Cc3cc([C@@H]4O[C@H](CO)[C@@H](O)[C@H](O)[C@H]4O)ccc3Cl)s2)cc1 [Example 191, 1-(β-D-glucopyranosyl)-4-chloro-3-(5-(4-ethoxycarbonylphenyl)-2-thienylmethyl)benzene] — 2.3-fold higher, 7.7 nM
- O=C(O)c1ccc(-c2ccc(Cc3cc([C@@H]4O[C@H](CO)[C@@H](O)[C@H](O)[C@H]4O)ccc3Cl)s2)cc1 [Example 192, 1-(β-D-glucopyranosyl)-3-(5-(4-carboxyphenyl)-2-thienylmethyl)-4-chlorobenzene] — 2.2-fold higher, 7.4 nM
- NC(=O)c1ccc(-c2ccc(Cc3cc([C@@H]4O[C@H](CO)[C@@H](O)[C@H](O)[C@H]4O)ccc3Cl)s2)cc1 [Example 193, 1-(β-D-glucopyranosyl)-3-(5-(4-carbamoylphenyl)-2-thienylmethyl)-4-chlorobenzene] — 3.8-fold lower, 0.9 nM
- Nc1ccc(-c2ccc(Cc3cc([C@@H]4O[C@H](CO)[C@@H](O)[C@H](O)[C@H]4O)ccc3Cl)s2)cc1 [Example 197, 1-(β-D-glucopyranosyl)-3-(5-(4-aminophenyl)-2-thienylmethyl)-4-chlorobenzene] — 1.7-fold lower, 2 nM
- Cc1ccc([C@@H]2O[C@H](CO)[C@@H](O)[C@H](O)[C@H]2O)cc1Cc1ccc(-c2cc(F)cc(F)c2)s1 [Example 201] — 2.4-fold higher, 8.2 nM
- OC[C@H]1O[C@@H](c2ccc(Cl)c(Cc3ccc(-c4cncs4)s3)c2)[C@H](O)[C@@H](O)[C@@H]1O [Example 204] — 2.4-fold lower, 1.4 nM
- OC[C@H]1O[C@@H](c2ccc(Cl)c(Cc3ccc(-c4cscn4)s3)c2)[C@H](O)[C@@H](O)[C@@H]1O [Example 207] — 5.7-fold lower, 0.6 nM
- COc1cccc(-c2ccc(Cc3cc([C@@H]4O[C@H](CO)[C@@H](O)[C@H](O)[C@H]4O)ccc3C)s2)n1 [Example 208] — within 1.5-fold, 2.4 nM
- COc1ccc(-c2ccc(Cc3cc([C@@H]4O[C@H](CO)[C@@H](O)[C@H](O)[C@H]4O)ccc3C)s2)cn1 [Example 209] — within 1.5-fold, 3.9 nM
- Cc1ccc([C@@H]2O[C@H](CO)[C@@H](O)[C@H](O)[C@H]2O)cc1Cc1ccc(-c2cscn2)s1 [Example 210] — 3.4-fold lower, 1 nM
- Cc1ccc([C@@H]2O[C@H](CO)[C@@H](O)[C@H](O)[C@H]2O)cc1Cc1ccc(-c2cccs2)s1 [Example 211] — 2.8-fold lower, 1.2 nM
- CCOc1cccc(-c2ccc(Cc3cc([C@@H]4O[C@H](CO)[C@@H](O)[C@H](O)[C@H]4O)ccc3C)s2)c1 [Example 212] — within 1.5-fold, 2.6 nM
- OC[C@H]1O[C@@H](c2ccc(Cl)c(Cc3ccc(-c4ccnc(F)c4)s3)c2)[C@H](O)[C@@H](O)[C@@H]1O [Example 216] — within 1.5-fold, 3.3 nM
- Cc1ccc([C@@H]2O[C@H](CO)[C@@H](O)[C@H](O)[C@H]2O)cc1Cc1ccc(-c2ccnc(F)c2)s1 [Example 217] — within 1.5-fold, 3.6 nM
- Cc1ccc([C@@H]2O[C@H](CO)[C@@H](O)[C@H](O)[C@H]2O)cc1Cc1ccc(-c2ccc(C#N)c(F)c2)s1 [Example 219] — 2-fold higher, 6.7 nM
- Cc1ccc([C@@H]2O[C@H](CO)[C@@H](O)[C@H](O)[C@H]2O)cc1Cc1ccc(-c2cccc(OC(F)F)c2)s1 [Example 222] — 1.9-fold lower, 1.8 nM
